Each structure is given as a SMILES string. Some results are limits rather than exact numbers.

The subject of one assay is male NIH-Swiss mice. The assay is described as follows: Forced-swim test in mice (mFST). Type of assay: in vivo, mouse. The settings on record: for ED60: Mus musculus, ip, immobility in last 4 min of 6 min; for Maximal Decrease (1 − compound/control) * 100%: i.p., immobility time. From the text: Forced-Swim Test in Mice (mFST)
mFST is an established in vivo assay for antidepressant activity (Li et al. J Pharmacol Exp Ther. 319(1):254-9, 2006.). […] The mFST was used to evaluate potential antidepressant-like activity of novel mGlu2/3 antagonists essentially as described in previously published methods (see for example, Li et al. J Pharmacol Exp Ther. 319(1):254-9, 2006.). Briefly, male NIH-Swiss mice (Harlan Sprague-Dawley, Indianapolis, Ind.) weighing between 25-30 g are used. Group housed animals are removed from the vivarium to the testing area in their own cages and allowed to adapt to the new environment for at least 1 hour before testing. Compounds where R^1 and R^2 are both hydrogen are dissolved in water with minimal NaOH added for dissolution and are administered i.p. Compounds where R^1 and/or R^2 are other than hydrogen are prepared on the day of use in 2.0-2.5% N-methyl-pyrrolidinone and then suspended in 1% HEC, 0.25% Tween 80, and 0.05% Dow antifoam, and administered orally. Mice are placed in a cylinder (diameter: 10 cm; height: 25 cm) filled with 6 cm of water (22-25° C.) for 6 min. The duration of immobility during the last 4 min. of the 6 min. period of the test was scored. A mouse is recorded as immobile when floating motionless or making only those movements necessary to keep its head above water.

A further assay addresses T1, human mGlu3 receptors (Homo sapiens, UniProt Q14832).
T1 construct: expressed in transfected cells; host or cells: AV12 cells, co-expressing rat EAAT1
The assay is described as follows: mGlu3 receptor cAMP antagonist assay. Type of assay: cell-based. The settings on record: reversal of DCG IV (EC90) inhibition of forskolin-stimulated cAMP; AV12 cells. As to the method:
(§1) mGlu2 and mGlu3 Receptor cAMP Antagonist Assays
Antagonist activity is assayed in recombinant AV12 cells stably expressing human mGlu2 or mGlu3 receptors and the rat glutamate transporter EAAT1 (Excitatory Amino Acid Transporter 1). The cell lines are maintained by culturing in DMEM with high glucose and pyridoxine hydrochloride supplemented with 5% dialyzed fetal bovine serum (FBS), 1 mM sodium pyruvate, 1 mM HEPES and 1 mM L-glutamine; geneticin and hygromycin B are used as selection antibiotics. Confluent cultures are grown at 37° C. in an atmosphere containing 6.5% CO2, and passaged biweekly. Cells are harvested using 0.25% trypsin, suspended in freeze media (FBS with 10% DMSO) at 10^7 cells/ml, and aliquots are stored in liquid nitrogen. Twenty-four hours before the assay, cells are plated at a density of 8,000-10,000 cells per well in a tissue culture treated, 96-well, half-area black plates (Costar 3875) in 50 μl of DMEM with high glucose and pyridoxine hydrochloride supplemented with 5% dialyzed FBS, 1 mM sodium pyruvate, 1 mM HEPES, 100 μg/ml ampicillin, and 250 μM (mGlu2) or 125 μM (mGlu3) of L-glutamine.
Reversal of the inhibition of forskolin-stimulated cAMP production by test compounds is measured using homogeneous time resolved fluorescence technology (HTRF; Cisbio cat #62AM4PEB). The medium is removed and the cells are incubated with 100 μl cAMP stimulation buffer (STIM) for 30 minutes at 37° C. (STIM buffer contains 500 ml HBSS, 1000 ml DPBS, 0.034% BSA, 1.67 mM HEPES and 500 μM IBMX (Sigma 15879).) Compounds are tested in 10-point concentration response curves using 3× serial dilution followed by further 40-fold dilution into STIM buffer. DCG IV (Tocris 0975) serves as the reference agonist. The final reaction mixture contains 1 μM (for mGlu2) or 3 μM (for mGlu3) of forskolin (Sigma F6886), DCG IV at its EC90, and up to 25 μM of test compound. Cells are incubated at 37° C. for 20 minutes. To measure the cAMP levels, cAMP-d2 conjugate and anti cAMP-cryptate conjugate in lysis buffer are incubated with the treated cells at room temperature for 1 hour (mGlu2) or 1.5 hour (mGlu3). The HTRF signal is detected using an EnVision plate reader (Perkin-Elmer) to calculate the ratio of fluorescence at […]. The raw data are converted to cAMP amount (pmole/well) using a cAMP standard curve generated for each experiment. Relative IC50 values are calculated from the top-bottom range of the concentration response curve using a four-parameter logistic curve fitting program (ActivityBase v5.3.1.22).

Another assay concerns the target T2, human mGlu2 receptors (Homo sapiens, UniProt Q14416).
T2 construct: expressed in transfected cells; host or cells: AV12 cells, co-expressing rat EAAT1
Put plainly: mGlu2 receptor cAMP antagonist assay. It counts as cell-based. The settings on record: reversal of DCG IV (EC90) inhibition of forskolin-stimulated cAMP; AV12 cells. As to the method:
as §1
Antagonist activity is assayed in recombinant AV12 cells stably expressing human mGlu2 or mGlu3 receptors and the rat glutamate transporter EAAT1 (Excitatory Amino Acid Transporter 1). The cell lines are maintained by culturing in DMEM with high glucose and pyridoxine hydrochloride supplemented with 5% dialyzed fetal bovine serum (FBS), 1 mM sodium pyruvate, 1 mM HEPES and 1 mM L-glutamine; geneticin and hygromycin B are used as selection antibiotics.
Reversal of the inhibition of forskolin-stimulated cAMP production by test compounds is measured using homogeneous time resolved fluorescence technology (HTRF; Cisbio cat #62AM4PEB). The medium is removed and the cells are incubated with 100 μl cAMP stimulation buffer (STIM) for 30 minutes at 37° C. […] Cells are incubated at 37° C. for 20 minutes. To measure the cAMP levels, cAMP-d2 conjugate and anti cAMP-cryptate conjugate in lysis buffer are incubated with the treated cells at room temperature for 1 hour (mGlu2) or 1.5 hour (mGlu3). […] The raw data are converted to cAMP amount (pmole/well) using a cAMP standard curve generated for each experiment. Relative IC50 values are calculated from the top-bottom range of the concentration response curve using a four-parameter logistic curve fitting program (ActivityBase v5.3.1.22).

The target in another assay is iGluR5 (Homo sapiens, UniProt P39086). Put plainly: Off-target activity, known assay methods: iGluR5. The source says: (§2) Further, certain compounds of the present invention show a lack of significant activity at other physiologically important receptors such as, but not limited to, the hERG channel, serotonin receptors (specifically 5-HT2A and 5-HT2B), muscarinic receptors (specifically M2), and iGluR receptors (specifically iGluR5).
Chain of iGluR5 (P39086 31-918): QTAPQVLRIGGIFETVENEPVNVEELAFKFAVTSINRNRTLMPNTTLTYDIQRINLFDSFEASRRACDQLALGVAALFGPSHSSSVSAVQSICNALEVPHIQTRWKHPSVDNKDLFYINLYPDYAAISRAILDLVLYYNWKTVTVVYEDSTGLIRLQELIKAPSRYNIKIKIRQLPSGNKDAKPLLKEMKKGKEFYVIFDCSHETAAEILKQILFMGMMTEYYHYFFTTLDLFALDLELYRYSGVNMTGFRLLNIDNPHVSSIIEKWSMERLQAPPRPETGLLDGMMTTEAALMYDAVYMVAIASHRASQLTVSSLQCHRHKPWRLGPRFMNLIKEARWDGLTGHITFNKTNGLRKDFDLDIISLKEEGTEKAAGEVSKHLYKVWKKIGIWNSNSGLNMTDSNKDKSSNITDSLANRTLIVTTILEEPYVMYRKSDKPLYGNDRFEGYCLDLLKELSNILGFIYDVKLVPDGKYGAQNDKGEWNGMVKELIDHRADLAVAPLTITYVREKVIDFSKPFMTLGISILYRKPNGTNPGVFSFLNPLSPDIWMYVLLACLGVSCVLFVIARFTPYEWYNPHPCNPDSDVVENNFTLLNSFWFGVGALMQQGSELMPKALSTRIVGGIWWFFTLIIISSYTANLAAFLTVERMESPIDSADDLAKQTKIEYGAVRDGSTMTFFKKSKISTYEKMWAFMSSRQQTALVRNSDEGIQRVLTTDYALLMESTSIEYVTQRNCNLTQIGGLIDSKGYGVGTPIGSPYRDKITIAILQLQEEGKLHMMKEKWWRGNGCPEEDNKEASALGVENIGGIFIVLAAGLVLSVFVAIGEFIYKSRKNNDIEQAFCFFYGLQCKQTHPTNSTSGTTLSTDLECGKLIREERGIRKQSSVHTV

For assay [1], the target named is serotonin receptor 5-HT2B (Homo sapiens, UniProt P41595). The assay is described as follows: Off-target activity, known assay methods: 5-HT2B.
Chain of serotonin receptor 5-HT2B (P41595 whole entry): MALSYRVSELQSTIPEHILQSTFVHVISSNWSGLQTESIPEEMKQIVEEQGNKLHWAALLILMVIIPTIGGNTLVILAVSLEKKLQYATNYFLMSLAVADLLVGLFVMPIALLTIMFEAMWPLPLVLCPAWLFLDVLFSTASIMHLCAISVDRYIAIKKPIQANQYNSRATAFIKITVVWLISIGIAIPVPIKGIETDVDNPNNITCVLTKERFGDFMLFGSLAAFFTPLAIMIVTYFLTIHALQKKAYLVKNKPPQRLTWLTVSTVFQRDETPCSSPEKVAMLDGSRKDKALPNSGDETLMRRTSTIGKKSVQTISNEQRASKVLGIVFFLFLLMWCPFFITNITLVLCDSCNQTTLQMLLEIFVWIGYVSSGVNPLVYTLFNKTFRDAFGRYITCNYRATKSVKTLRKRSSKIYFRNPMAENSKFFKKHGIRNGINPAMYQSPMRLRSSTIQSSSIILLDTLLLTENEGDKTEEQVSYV
Text: as §2

A further assay has as its system mGlu2+/+ mice. Put plainly: mFST in mGlu2+/+ littermate mice. It counts as in vivo, mouse. The settings on record: 10 mg/kg, i.p., 30 min prior.
Assay [2] addresses serotonin receptor 5-HT2A (Homo sapiens, UniProt P28223). Put plainly: Off-target activity, known assay methods: 5-HT2A.
Text: as §2

T2 sequence (Q14416 19-872): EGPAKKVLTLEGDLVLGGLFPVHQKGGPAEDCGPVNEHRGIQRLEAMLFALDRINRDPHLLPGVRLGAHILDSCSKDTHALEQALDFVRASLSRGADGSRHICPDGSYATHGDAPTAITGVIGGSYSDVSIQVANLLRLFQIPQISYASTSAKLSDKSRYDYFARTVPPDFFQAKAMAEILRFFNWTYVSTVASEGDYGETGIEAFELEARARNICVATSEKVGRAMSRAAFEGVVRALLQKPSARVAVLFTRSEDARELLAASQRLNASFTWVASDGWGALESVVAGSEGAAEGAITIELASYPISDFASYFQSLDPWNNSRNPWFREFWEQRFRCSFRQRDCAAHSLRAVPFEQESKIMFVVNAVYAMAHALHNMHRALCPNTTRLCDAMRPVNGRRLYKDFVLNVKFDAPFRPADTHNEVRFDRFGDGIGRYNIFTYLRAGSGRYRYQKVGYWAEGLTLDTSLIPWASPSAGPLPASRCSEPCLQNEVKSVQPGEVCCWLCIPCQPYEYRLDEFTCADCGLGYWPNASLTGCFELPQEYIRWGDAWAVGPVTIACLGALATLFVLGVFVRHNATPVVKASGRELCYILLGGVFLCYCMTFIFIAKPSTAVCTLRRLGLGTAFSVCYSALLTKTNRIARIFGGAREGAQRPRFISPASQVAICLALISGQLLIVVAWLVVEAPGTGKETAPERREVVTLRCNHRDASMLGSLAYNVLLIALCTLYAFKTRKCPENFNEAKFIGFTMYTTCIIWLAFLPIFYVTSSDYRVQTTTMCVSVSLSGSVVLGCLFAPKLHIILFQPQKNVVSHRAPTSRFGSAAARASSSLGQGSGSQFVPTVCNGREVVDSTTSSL
T1 sequence (Q14832 23-879): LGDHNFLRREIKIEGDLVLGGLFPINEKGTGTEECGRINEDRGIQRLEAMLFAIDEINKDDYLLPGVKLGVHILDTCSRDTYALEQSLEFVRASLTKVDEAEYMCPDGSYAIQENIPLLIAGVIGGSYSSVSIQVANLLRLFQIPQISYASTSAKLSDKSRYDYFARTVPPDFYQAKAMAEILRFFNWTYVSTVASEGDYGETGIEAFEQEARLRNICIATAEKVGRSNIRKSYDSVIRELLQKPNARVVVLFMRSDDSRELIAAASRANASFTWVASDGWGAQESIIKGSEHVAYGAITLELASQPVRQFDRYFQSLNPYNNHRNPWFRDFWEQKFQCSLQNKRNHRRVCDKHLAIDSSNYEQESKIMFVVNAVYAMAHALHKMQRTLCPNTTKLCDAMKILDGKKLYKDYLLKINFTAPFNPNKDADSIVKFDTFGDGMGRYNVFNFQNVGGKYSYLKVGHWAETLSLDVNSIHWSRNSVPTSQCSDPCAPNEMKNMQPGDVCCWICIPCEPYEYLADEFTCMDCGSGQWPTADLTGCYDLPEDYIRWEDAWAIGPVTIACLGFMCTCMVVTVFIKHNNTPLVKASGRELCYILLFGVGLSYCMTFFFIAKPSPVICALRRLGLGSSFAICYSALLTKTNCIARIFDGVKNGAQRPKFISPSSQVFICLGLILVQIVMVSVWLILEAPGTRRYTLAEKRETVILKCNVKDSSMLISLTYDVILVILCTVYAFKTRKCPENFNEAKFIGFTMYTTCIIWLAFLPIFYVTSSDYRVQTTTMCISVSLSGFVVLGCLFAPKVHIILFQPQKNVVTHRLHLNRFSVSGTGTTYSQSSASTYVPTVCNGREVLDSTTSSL
Chain of serotonin receptor 5-HT2A (P28223 whole entry): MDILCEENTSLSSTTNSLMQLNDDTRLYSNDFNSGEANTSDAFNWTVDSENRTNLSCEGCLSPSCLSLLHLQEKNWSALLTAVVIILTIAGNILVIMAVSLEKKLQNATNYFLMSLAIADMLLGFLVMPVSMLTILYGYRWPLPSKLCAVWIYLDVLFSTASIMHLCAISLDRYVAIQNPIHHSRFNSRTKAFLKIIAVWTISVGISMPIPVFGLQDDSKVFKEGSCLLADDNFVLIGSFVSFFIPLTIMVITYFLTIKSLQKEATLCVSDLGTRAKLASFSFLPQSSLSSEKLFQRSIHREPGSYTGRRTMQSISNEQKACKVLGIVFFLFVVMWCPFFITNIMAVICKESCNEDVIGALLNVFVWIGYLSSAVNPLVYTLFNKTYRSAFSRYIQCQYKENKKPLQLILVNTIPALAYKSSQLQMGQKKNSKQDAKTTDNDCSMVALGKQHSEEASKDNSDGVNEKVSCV

`Cl.N[C@]1(C(=O)O)[C@@H]2[C@@H](C(=O)O)[C@@H]2[C@H](NC(=O)CO)[C@H]1OCc1ccc(Cl)c(Cl)c1` [Example 9, (1S,2R,3R,4S,5R,6S)-2-Amino-3-[(3,4-dichlorobenzyl)oxy]-4-[(hydroxyacetyl)amino]bicyclo[3.1.0]hexane-2,6-dicarboxylic acid hydrochloride] gave an ED60 in the assay with male NIH-Swiss mice of 9.68 mg/kg. In addition, the “Maximal Decrease (1 − compound/control) * 100%” value in the assay on male NIH-Swiss mice stood at 41%. The 50% inhibitory concentration (IC50) amounted to 4.4 ± 0.5 nM at human mGlu3 receptors and 22 ± 3 nM at human mGlu2 receptors.
With `CC(=O)N[C@H]1[C@H]2[C@H](C(=O)O)[C@H]2[C@](N)(C(=O)O)[C@@H]1OCc1ccc(Cl)c(Cl)c1` [Example 4, (1S,2R,3R,4S,5R,6S)-4-(Acetylamino)-2-amino-3-[(3,4-dichlorobenzyl)oxy]bicyclo[3.1.0]hexane-2,6-dicarboxylic acid], in the assay on male NIH-Swiss mice, the ED60 was 9.5 mg/kg and the “Maximal Decrease (1 − compound/control) * 100%” value came to 38%. On human mGlu3 receptors, the IC50 came out at 8.2 ± 0.3 nM. Also, on human mGlu2 receptors, the IC50 turned out to be 25.5 ± 2.8 nM.
`N[C@]1(C(=O)O)[C@@H]2[C@@H](C(=O)O)[C@@H]2[C@H](O)[C@H]1OCc1ccc(Cl)c(Cl)c1` [Example 1, (1S,2R,3S,4S,5R,6R)-2-Amino-3-[(3,4-dichlorobenzyl)oxy]-4-hydroxybicyclo[3.1.0]hexane-2,6-dicarboxylic acid]: in the assay on male NIH-Swiss mice, the ED60 is 1 mg/kg and the “Maximal Decrease (1 − compound/control) * 100%” value is listed as 59%. Also, the “activity at iGluR5” value at iGluR5 is reported as “no appreciable activity”. Also, the “activity at 5-HT2B” value in assay [1] was “no appreciable activity”. For the same compound, the immobility time entry with mGlu2+/+ mice is on record as “significantly decrease immobility time”. For the same compound, the “activity at 5-HT2A” value in assay [2] was “no appreciable activity”. Further, the IC50 at human mGlu3 receptors stood at 27.2 ± 4.2 nM. For the same compound, the 50% inhibitory concentration (IC50) at human mGlu2 receptors is 43.3 ± 5.8 nM.
With `Cl.Cn1cnc(S[C@H]2[C@H]3[C@H](C(=O)O)[C@H]3[C@](N)(C(=O)O)[C@@H]2OCc2ccc(Cl)c(Cl)c2)n1` [Example 7, (1R,2R,3S,4S,5R,6R)-2-Amino-3-[(3,4-dichlorophenyl)methoxy]-4-[(1-methyl-1,2,4-triazol-3-yl)sulfanyl]bicyclo[3.1.0]hexane-2,6-dicarboxylic acid hydrochloride.], the ED60 in the assay with male NIH-Swiss mice is over 10 mg/kg. Moreover, the “Maximal Decrease (1 − compound/control) * 100%” value with male NIH-Swiss mice is reported as 18%. Moreover, the figures for the IC50 at human mGlu3 receptors and at human mGlu2 receptors were 34.8 ± 6.9 nM and 52 ± 17.9 nM, respectively.
As to `N[C@]1(C(=O)O)[C@@H]2[C@@H](C(=O)O)[C@@H]2[C@H](Sc2nc[nH]n2)[C@H]1OCc1ccc(Cl)c(Cl)c1` [Example 2, (1R,2R,3S,4S,5R,6R)-2-Amino-3-[(3,4-dichlorobenzyl)oxy]-4-(1H-1,2,4-triazol-3-ylsulfanyl)bicyclo[3.1.0]hexane-2,6-dicarboxylic acid], in the assay on male NIH-Swiss mice, the ED60 was 2.08 mg/kg and the “Maximal Decrease (1 − compound/control) * 100%” value was found to be 62%. Besides, the IC50 on human mGlu3 receptors amounted to 7.8 nM. Besides, the 50% inhibitory concentration (IC50) at human mGlu2 receptors was 13.1 ± 1.9 nM.

What is called IC50 is the concentration that gives 50% inhibition.

The values above are taken from US9056844B2, “4-substituted-3-benzyloxy-bicyclo[3.1.0]hexane compounds as mGluR 2/3 antagonists” (Eli Lilly and Company, priority 2010, dated 2015).
